Data taken from the NIST ThermoML archive (doi:10.1016/j.jct.2012.06.012).

Test: xn = mol fraction of the nth substance listed
Conditions: Liquid, Vibrating tube method

CCCCCCCCCC [decane] + CCO
Conditions	mass density [kg/m3]
352.7 K, 1000 kPa, x2 = 0.1011	683.33
352.7 K, 2000 kPa, x2 = 0.1011	684.45
352.7 K, 3000 kPa, x2 = 0.1011	685.55
352.7 K, 4000 kPa, x2 = 0.1011	686.65
352.7 K, 5000 kPa, x2 = 0.1011	687.72
352.7 K, 6000 kPa, x2 = 0.1011	688.78
352.7 K, 7000 kPa, x2 = 0.1011	689.84
352.7 K, 8000 kPa, x2 = 0.1011	690.9
352.7 K, 9000 kPa, x2 = 0.1011	691.94
352.7 K, 10000 kPa, x2 = 0.1011	692.96
352.7 K, 11000 kPa, x2 = 0.1011	693.98
352.7 K, 12000 kPa, x2 = 0.1011	695
352.7 K, 13000 kPa, x2 = 0.1011	695.99
352.7 K, 14000 kPa, x2 = 0.1011	696.97
352.7 K, 15000 kPa, x2 = 0.1011	697.93
352.7 K, 16000 kPa, x2 = 0.1011	698.88
352.7 K, 17000 kPa, x2 = 0.1011	699.83
352.7 K, 18000 kPa, x2 = 0.1011	700.74
352.7 K, 19000 kPa, x2 = 0.1011	701.63
352.7 K, 20000 kPa, x2 = 0.1011	702.51
352.76 K, 1000 kPa, x2 = 0.7526	702.43
352.76 K, 2000 kPa, x2 = 0.7526	703.63
352.76 K, 3000 kPa, x2 = 0.7526	704.82
352.76 K, 4000 kPa, x2 = 0.7526	706.01
352.76 K, 5000 kPa, x2 = 0.7526	707.19
352.76 K, 6000 kPa, x2 = 0.7526	708.35
352.76 K, 7000 kPa, x2 = 0.7526	709.51
352.76 K, 8000 kPa, x2 = 0.7526	710.66
352.76 K, 9000 kPa, x2 = 0.7526	711.8
352.76 K, 10000 kPa, x2 = 0.7526	712.92
352.76 K, 11000 kPa, x2 = 0.7526	714.03
352.76 K, 12000 kPa, x2 = 0.7526	715.12
352.76 K, 13000 kPa, x2 = 0.7526	716.21
352.76 K, 14000 kPa, x2 = 0.7526	717.27
352.76 K, 15000 kPa, x2 = 0.7526	718.31
352.76 K, 16000 kPa, x2 = 0.7526	719.35
352.76 K, 17000 kPa, x2 = 0.7526	720.36
352.76 K, 18000 kPa, x2 = 0.7526	721.35
352.76 K, 19000 kPa, x2 = 0.7526	722.32
352.76 K, 20000 kPa, x2 = 0.7526	723.29
352.85 K, 1000 kPa, x2 = 0.2507	684.78
352.85 K, 2000 kPa, x2 = 0.2507	685.92
352.85 K, 3000 kPa, x2 = 0.2507	687.03
352.85 K, 4000 kPa, x2 = 0.2507	688.14
352.85 K, 5000 kPa, x2 = 0.2507	689.24
352.85 K, 6000 kPa, x2 = 0.2507	690.33
352.85 K, 7000 kPa, x2 = 0.2507	691.41
352.85 K, 8000 kPa, x2 = 0.2507	692.48
352.85 K, 9000 kPa, x2 = 0.2507	693.55
352.85 K, 10000 kPa, x2 = 0.2507	694.61
352.85 K, 11000 kPa, x2 = 0.2507	695.65
352.85 K, 12000 kPa, x2 = 0.2507	696.68
352.85 K, 13000 kPa, x2 = 0.2507	697.7
352.85 K, 14000 kPa, x2 = 0.2507	698.7
352.85 K, 15000 kPa, x2 = 0.2507	699.68
352.85 K, 16000 kPa, x2 = 0.2507	700.65
352.85 K, 17000 kPa, x2 = 0.2507	701.61
352.85 K, 18000 kPa, x2 = 0.2507	702.54
352.85 K, 19000 kPa, x2 = 0.2507	703.46
352.85 K, 20000 kPa, x2 = 0.2507	704.34
362.64 K, 1000 kPa, x2 = 0.1011	675.19
362.64 K, 1000 kPa, x2 = 0.4963	680.64
362.64 K, 1000 kPa, x2 = 0.9014	707.28
362.64 K, 2000 kPa, x2 = 0.1011	676.37
362.64 K, 2000 kPa, x2 = 0.4963	681.93
362.64 K, 2000 kPa, x2 = 0.9014	708.6
362.64 K, 3000 kPa, x2 = 0.1011	677.53
362.64 K, 3000 kPa, x2 = 0.4963	683.18
362.64 K, 3000 kPa, x2 = 0.9014	709.92
362.64 K, 4000 kPa, x2 = 0.1011	678.69
362.64 K, 4000 kPa, x2 = 0.4963	684.42
362.64 K, 4000 kPa, x2 = 0.9014	711.21
362.64 K, 5000 kPa, x2 = 0.1011	679.84
362.64 K, 5000 kPa, x2 = 0.4963	685.66
362.64 K, 5000 kPa, x2 = 0.9014	712.52
362.64 K, 6000 kPa, x2 = 0.1011	680.98
362.64 K, 6000 kPa, x2 = 0.4963	686.87
362.64 K, 6000 kPa, x2 = 0.9014	713.8
362.64 K, 7000 kPa, x2 = 0.1011	682.11
362.64 K, 7000 kPa, x2 = 0.4963	688.09
362.64 K, 7000 kPa, x2 = 0.9014	715.07
362.64 K, 8000 kPa, x2 = 0.1011	683.24
362.64 K, 8000 kPa, x2 = 0.4963	689.28
362.64 K, 8000 kPa, x2 = 0.9014	716.3
362.64 K, 9000 kPa, x2 = 0.1011	684.33
362.64 K, 9000 kPa, x2 = 0.4963	690.44
362.64 K, 9000 kPa, x2 = 0.9014	717.55
362.64 K, 10000 kPa, x2 = 0.1011	685.43
362.64 K, 10000 kPa, x2 = 0.4963	691.61
362.64 K, 10000 kPa, x2 = 0.9014	718.74
